# Patent US20140350117A1, “Topical Scar Treatment Composition and Method of Using Same” (PROFESSIONAL COMPOUNDING CENTERS OF AMERICA, priority 2013, published 2014)
# Structures can show the parent of a compound that is named as a salt.
# Legend:
# fibroblast cells = settings: cited from earlier work
# [1] = tested on: keloid and hypertrophic scar cells; settings: stated to correspond to about 0.01% tamoxifen citrate; cited from earlier work
# collagen = settings: cited from earlier work
# TGF-β = assay: luciferase bioassay utilizing mink lung epithelial cells for total TGF-β in keloid fibroblasts culture; assay type: cell-based; settings: 48-hour exposure
# Source text: TGF-β is correlated with luciferase activity and reported in relative light units.
compound,measurement,setting,value
CC/C(=C(\c1ccccc1)c1ccc(OCCN(C)C)cc1)c1ccccc1 [tamoxifen citrate],proliferation of normal dermal and keloid fibroblasts,fibroblast cells,decrease proliferation
same,concentrations having a deadly effect on keloid and hypertrophic scar cells,[1],greater than 20 μM
same,synthesis of collagen by keloid fibroblasts,collagen,decreasing the synthesis of collagen
same,total TGF-β levels,TGF-β,dose-dependent decrease
same,percent reduction of TGF-β,TGF-β; about 8 μM,about 75%
same,TGF-β level after treatment,"TGF-β; about 8 μM, reduced from about 200 pg/ml",about 50 pg/ml
